Measurements reported in ChEMBL document CHEMBL3861946 (Medchemcomm, 2016).
Where a SMILES comes first, the peptide text is derived from it. The star is where a group is joined. Cbz = O=C(OCc1ccccc1)*; CH2F = FC*

Experiments:
Caspase-3 = target: T1, Caspase-3 (Homo sapiens, UniProt P42574); test: Inhibition of recombinant human caspase-3 using Ac-DEVD-AMC as substrate preincubated for 10 mins followed by substrate addition measured after 60 mins by fluorometric assay
T1 sequence (P42574 whole entry): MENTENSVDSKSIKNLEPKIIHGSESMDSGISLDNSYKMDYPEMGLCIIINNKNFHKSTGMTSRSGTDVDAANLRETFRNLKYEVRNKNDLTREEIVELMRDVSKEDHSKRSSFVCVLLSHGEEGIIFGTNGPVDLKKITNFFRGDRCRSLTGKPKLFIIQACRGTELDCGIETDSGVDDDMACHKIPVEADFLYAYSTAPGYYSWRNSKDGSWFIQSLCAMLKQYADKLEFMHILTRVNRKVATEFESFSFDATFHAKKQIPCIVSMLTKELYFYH

[1] = target: T2, Amine oxidase [flavin-containing] A (Homo sapiens, UniProt P21397); test: Inhibition of recombinant human MAOA using kynuramine as substrate assessed as decrease in formation of 4-hydroxyquinoline incubated for 20 mins by fluorescence assay
T2 sequence (P21397 whole entry): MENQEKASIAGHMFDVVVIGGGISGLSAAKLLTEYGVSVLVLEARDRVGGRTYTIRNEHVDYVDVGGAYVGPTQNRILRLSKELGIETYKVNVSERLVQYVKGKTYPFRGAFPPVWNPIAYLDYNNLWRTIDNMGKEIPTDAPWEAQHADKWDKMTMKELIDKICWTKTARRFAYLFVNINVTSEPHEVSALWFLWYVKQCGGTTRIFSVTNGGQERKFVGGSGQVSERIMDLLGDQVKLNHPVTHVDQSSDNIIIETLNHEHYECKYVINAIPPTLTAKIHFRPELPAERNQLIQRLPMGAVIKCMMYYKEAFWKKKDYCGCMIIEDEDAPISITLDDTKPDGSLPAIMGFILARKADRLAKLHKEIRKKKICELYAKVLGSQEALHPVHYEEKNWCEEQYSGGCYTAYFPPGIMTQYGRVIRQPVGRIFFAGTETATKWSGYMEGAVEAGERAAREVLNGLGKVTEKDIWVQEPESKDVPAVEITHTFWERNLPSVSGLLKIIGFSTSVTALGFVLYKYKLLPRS

[2] = target: T3, Amine oxidase [flavin-containing] B (Homo sapiens, UniProt P27338); test: Inhibition of recombinant human MAOB using kynuramine as substrate assessed as decrease in formation of 4-hydroxyquinoline incubated for 20 mins by fluorescence assay
T3 sequence (P27338 whole entry): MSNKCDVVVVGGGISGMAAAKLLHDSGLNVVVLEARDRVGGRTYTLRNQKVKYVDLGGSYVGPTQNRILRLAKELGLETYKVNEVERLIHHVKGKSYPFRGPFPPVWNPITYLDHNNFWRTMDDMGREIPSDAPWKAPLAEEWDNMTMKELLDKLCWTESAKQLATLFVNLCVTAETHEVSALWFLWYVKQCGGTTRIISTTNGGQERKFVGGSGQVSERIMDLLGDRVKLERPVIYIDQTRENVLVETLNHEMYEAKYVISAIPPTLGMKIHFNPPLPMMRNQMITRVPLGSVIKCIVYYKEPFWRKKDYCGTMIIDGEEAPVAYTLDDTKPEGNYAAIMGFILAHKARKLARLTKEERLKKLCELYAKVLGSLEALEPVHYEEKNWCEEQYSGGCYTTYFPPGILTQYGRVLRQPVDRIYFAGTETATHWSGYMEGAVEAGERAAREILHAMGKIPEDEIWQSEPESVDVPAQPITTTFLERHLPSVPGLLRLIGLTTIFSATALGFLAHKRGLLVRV

[3] = target: T2, Amine oxidase [flavin-containing] A; test: Time-dependent inhibition of recombinant human MAOA using kynuramine as substrate assessed as decrease in formation of 4-hydroxyquinoline at 2 times IC50 preincubated for 15 to 60 mins followed by substrate addition measured after 15 mins by fluorescence assay; conditions: 0.25 h
Homo sapiens = organism: Homo sapiens; test: Selectivity ratio of IC50 for recombinant human MAOB to IC50 for recombinant human MAOA

Compound | IC50 (Caspase-3) [µM] | IC50 [1] [µM] | Ki [1] [µM] | IC50 [2] [µM] | Ki [2] [µM] | TDI [3] | Ratio IC50 (Homo sapiens)
COC(=O)C[C@H](NC(=O)[C@H](C)NC(=O)[C@@H](NC(=O)OCc1ccccc1)C(C)C)C(=O)CF (Cbz-Val-Ala-Asp(OMe)-CH2F) | 40 | – | – | – | – | – | –
CN(Cc1ccc(F)cc1)S(=O)(=O)c1ccc2c(c1)C(=O)C(=O)N2 | – | 8.26 | 2.18 | 5.96 | 2.57 | – | –
CN(Cc1ccccc1F)S(=O)(=O)c1ccc2c(c1)C(=O)C(=O)N2 | – | 21.6 | 5.7 | > 100 | – | – | –
C#CCN1C(=O)C(=O)c2cc(S(=O)(=O)N(C)Cc3ccccc3F)ccc21 | – | 9.43 | 2.48 | 128 | 55.2 | – | –
C#CCN(C)[C@H](C)Cc1ccccc1 [SELEGILINE] | > 100 | – | – | – | – | – | –
C#CCN(C)CCCOc1ccc(Cl)cc1Cl [CLORGILINE] | > 100 | – | – | – | – | Active | –
O=C1Nc2ccccc2C1=O [ISATIN] | > 100 | – | – | – | – | – | –
C#CCN1C(=O)C(=O)c2cc(S(=O)(=O)N(C)Cc3ccc(F)cc3)ccc21 | > 100 | 4.31 | 1.14 | > 100 | – | – | > 23.9
CN(Cc1cccc(F)c1)S(=O)(=O)c1ccc2c(c1)C(=O)C(=O)N2 | – | 22.8 | 6 | 8.32 | 3.58 | – | –
C#CCN1C(=O)C(=O)c2ccccc21 | > 100 | 30.9 | 8.14 | 35.2 | 15.1 | – | 2.12
C#CCN1C(=O)C(=O)c2cc(S(=O)(=O)N(C)Cc3cccc(F)c3)ccc21 | – | 10.7 | 2.81 | 70.6 | 30.4 | – | –
